Assay results from patent US4808411A, “Antibiotic-polymer compositions” (Abbott Laboratories, priority 1987, dated 1989).
In brackets after ≈: the same amount, converted by molar mass.

Tests used:
[1] = Solubility of drug after stirring material providing approx. 20 mg/mL active drug for 24 hours in water (buffer for pure drugs); type: physicochemical
[2] = Bioavailability of 6-O-methylerythromycin in dogs (Example 12); type: in vivo; conditions: dog, blood, po, 250 mg 6-O-methylerythromycin, fasted, histamine
Experimental: All dogs were fasted overnight, and histamine was administered one hour prior to dosing with the test composition. […] Blood samples were drawn and assayed using a standard microbiological assay. All dogs were fed 12 hours after dosing.

solubility at 24 h ([1]; pH 6.2, aqueous buffer) [µg/mL] | solubility at 24 h ([1]; pH 7, aqueous buffer) [µg/mL] | solubility at 24 h ([1]; pH 7.98, aqueous buffer) [µg/mL] | AUC(0-t) at 8 h [2] [ng·h/mL] | Cmax [2] [ng/mL] | Tmax [2] [h] | SMILES | solubility at 24 h ([1]; pH 7.72, aqueous buffer) [µg/mL] | solubility at 24 h ([1]; pH 8.24, aqueous buffer) [µg/mL]
7000 (≈ 9360 µM) | 1650 (≈ 2210 µM) | 134 (≈ 179 µM) | 43500 | 5370 | 1.33 | CC[C@H]1OC(=O)[C@H](C)[C@@H](O[C@H]2C[C@@](C)(OC)[C@@H](O)[C@H](C)O2)[C@H](C)[C@@H](O[C@@H]2O[C@H](C)C[C@H](N(C)C)[C@H]2O)[C@](C)(OC)C[C@@H](C)C(=O)[C@H](C)[C@@H](O)[C@]1(C)O [6-O--Methyl-ery, 6-O-methylerythromycin] | – | –
– | – | – | – | – | – | CC[C@H]1OC(=O)[C@H](C)[C@@H](O[C@H]2C[C@@](C)(OC)[C@@H](O)[C@H](C)O2)[C@H](C)[C@@H](O[C@@H]2O[C@H](C)C[C@H](N(C)C)[C@H]2O)[C@](C)(O)C[C@@H](C)C(=O)[C@H](C)[C@@H](O)[C@]1(C)O [Erythromycin, erythromycin] | 12200 (≈ 16600 µM) | 2120 (≈ 2890 µM)
